Assay results published in ChEMBL document CHEMBL4507311, “Data for DCP probe A-1155463” (2021).

Legend:
[1] = target: Apoptosis regulator Bcl-2 (Homo sapiens, UniProt P10415); experiment: Time-resolved fluorescence energy transfer (TR-FRET) with BCL2
[2] = target: Induced myeloid leukemia cell differentiation protein Mcl-1 (Homo sapiens, UniProt Q07820); experiment: Time-resolved fluorescence energy transfer (TR-FRET) with MCL1
[3] = target: Sodium/potassium-transporting ATPase (Sus scrofa) (UniProt P05027+P05024+D2WKD8+D2WKD7+F1ST41); experiment: ATPase (Na+/K+) Eurofins-Cerep enzyme and uptake assay; assay type: protein-complex assay; details: Compound concentration 10.0 uM
[4] = target: Alpha-1A adrenergic receptor (Homo sapiens) (UniProt P35348); experiment: Alpha1A (h) Eurofins-Cerep binding assay; parameters: ligand concentration 0.1 nM; details: filed as antagonist, Compound concentration 10.0 uM
[5] = target: Type-1 angiotensin II receptor (Homo sapiens) (UniProt P30556); experiment: AT1 (h) Eurofins-Cerep binding assay; parameters: ligand concentration 0.05 nM; details: filed as antagonist, Compound concentration 10.0 uM
[6] = target: Type-2 angiotensin II receptor (Homo sapiens) (UniProt P50052); experiment: AT2 (h) Eurofins-Cerep binding assay; parameters: ligand concentration 0.01 nM; details: filed as agonist, Compound concentration 10.0 uM
[7] = target: GABA-A receptor; anion channel (Rattus norvegicus) (UniProt O09028+P15431+P18506+P18508+P19969+P20236+P23574+P23576+P28471+P28473+P30191+P62813+P63079+P63138+Q91ZM7+Q9ES14); experiment: BZD (central) Eurofins-Cerep binding assay; assay type: protein-complex assay; parameters: ligand concentration 0.4 nM; details: filed as agonist, Compound concentration 10.0 uM
[8] = target: B2 bradykinin receptor (Homo sapiens) (UniProt P30411); experiment: B2 (h) Eurofins-Cerep binding assay; parameters: ligand concentration 0.3 nM; details: filed as agonist, Compound concentration 10.0 uM
[9] = target: Cannabinoid receptor 1 (Homo sapiens) (UniProt P21554); experiment: CB1 (h) Eurofins-Cerep binding assay; parameters: ligand concentration 0.5 nM; details: filed as agonist, Compound concentration 10.0 uM
[10] = target: Cannabinoid receptor 2 (Homo sapiens) (UniProt P34972); experiment: CB2 (h) Eurofins-Cerep binding assay; parameters: ligand concentration 0.8 nM; details: filed as agonist, Compound concentration 10.0 uM
[11] = target: D(1A) dopamine receptor (Homo sapiens) (UniProt P21728); experiment: D1 (h) Eurofins-Cerep binding assay; parameters: ligand concentration 0.3 nM; details: filed as antagonist, Compound concentration 10.0 uM
[12] = target: Endothelin-1 receptor (Homo sapiens) (UniProt P25101); experiment: ETA (h) Eurofins-Cerep binding assay; parameters: ligand concentration 0.03 nM; details: filed as agonist, Compound concentration 10.0 uM
[13] = target: Histamine H2 receptor (Homo sapiens) (UniProt P25021); experiment: H2 (h) Eurofins-Cerep binding assay; parameters: ligand concentration 0.075 nM; details: filed as antagonist, Compound concentration 10.0 uM
[14] = target: MAO-A (amine oxidase [flavin-containing] A) (Rattus norvegicus, UniProt P21396); experiment: MAO-A Eurofins-Cerep binding assay; parameters: incubation time 60 min, incubation temperature 37°C, ligand concentration 10 nM; details: rat cerebral cortex, probe [3H]Ro 41-1049 (10 nM), compound concentration 10 uM, read-out: % Inhibition of Control Specific Binding (Mean n=2)
[15] = target: Motilin receptor (Homo sapiens) (UniProt O43193); experiment: motilin (h Eurofins-Cerep binding assay; parameters: ligand concentration 0.05 nM; details: filed as agonist, Compound concentration 10.0 uM
[16] = target: T1, Muscarinic acetylcholine receptor M2 (Homo sapiens) (UniProt P08172); experiment: M2 (h) Eurofins-Cerep binding assay; parameters: ligand concentration 2 nM; details: filed as antagonist, Compound concentration 10.0 uM
T1 sequence (whole entry): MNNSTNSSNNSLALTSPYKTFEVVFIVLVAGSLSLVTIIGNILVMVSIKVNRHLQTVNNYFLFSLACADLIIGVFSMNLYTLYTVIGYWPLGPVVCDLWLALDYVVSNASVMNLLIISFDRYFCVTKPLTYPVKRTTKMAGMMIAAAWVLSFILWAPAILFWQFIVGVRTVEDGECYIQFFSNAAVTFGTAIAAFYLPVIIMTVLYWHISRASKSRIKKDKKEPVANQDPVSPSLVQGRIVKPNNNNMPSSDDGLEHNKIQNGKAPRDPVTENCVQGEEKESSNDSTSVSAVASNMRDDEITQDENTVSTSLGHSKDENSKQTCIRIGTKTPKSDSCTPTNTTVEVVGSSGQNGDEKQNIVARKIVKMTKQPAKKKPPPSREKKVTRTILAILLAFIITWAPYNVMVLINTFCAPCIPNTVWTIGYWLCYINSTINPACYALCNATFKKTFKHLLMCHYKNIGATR

[17] = target: T2, Muscarinic acetylcholine receptor M4 (Homo sapiens) (UniProt P08173); experiment: M4 (h) Eurofins-Cerep binding assay; parameters: ligand concentration 0.2 nM; details: filed as antagonist, Compound concentration 10.0 uM
T2 sequence (whole entry): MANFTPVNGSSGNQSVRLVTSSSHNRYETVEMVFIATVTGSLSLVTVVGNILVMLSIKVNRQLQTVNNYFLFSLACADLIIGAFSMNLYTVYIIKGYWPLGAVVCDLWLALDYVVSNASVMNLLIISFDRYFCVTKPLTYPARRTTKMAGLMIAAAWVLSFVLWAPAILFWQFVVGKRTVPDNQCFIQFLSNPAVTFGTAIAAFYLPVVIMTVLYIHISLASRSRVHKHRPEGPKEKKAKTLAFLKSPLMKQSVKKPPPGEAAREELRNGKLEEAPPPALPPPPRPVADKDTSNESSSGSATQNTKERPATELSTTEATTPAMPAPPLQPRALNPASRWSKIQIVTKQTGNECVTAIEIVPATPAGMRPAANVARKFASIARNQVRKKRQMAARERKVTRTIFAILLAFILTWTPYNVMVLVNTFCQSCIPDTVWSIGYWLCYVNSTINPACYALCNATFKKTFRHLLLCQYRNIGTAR

[18] = target: T3, Muscarinic acetylcholine receptor M5 (Homo sapiens) (UniProt P08912); experiment: M5 (h) Eurofins-Cerep binding assay; parameters: ligand concentration 0.3 nM; details: filed as antagonist, Compound concentration 10.0 uM
T3 sequence (whole entry): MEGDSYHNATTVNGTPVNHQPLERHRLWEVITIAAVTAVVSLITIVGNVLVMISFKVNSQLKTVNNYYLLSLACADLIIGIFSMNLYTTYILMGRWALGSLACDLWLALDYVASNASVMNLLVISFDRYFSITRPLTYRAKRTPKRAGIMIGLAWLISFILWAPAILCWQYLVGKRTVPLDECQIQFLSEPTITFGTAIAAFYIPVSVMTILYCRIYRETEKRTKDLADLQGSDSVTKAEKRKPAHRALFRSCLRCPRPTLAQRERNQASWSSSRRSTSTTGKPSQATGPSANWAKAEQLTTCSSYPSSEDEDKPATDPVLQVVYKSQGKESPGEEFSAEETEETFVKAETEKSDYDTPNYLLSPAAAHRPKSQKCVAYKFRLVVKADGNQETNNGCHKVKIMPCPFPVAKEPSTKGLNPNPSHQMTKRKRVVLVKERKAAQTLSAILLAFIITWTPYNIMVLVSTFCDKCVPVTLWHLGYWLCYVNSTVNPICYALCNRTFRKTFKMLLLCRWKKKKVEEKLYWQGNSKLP

[19] = target: Mu-type opioid receptor (Homo sapiens) (UniProt P35372); experiment: mu (MOP) (h) Eurofins-Cerep binding assay; parameters: ligand concentration 0.5 nM; details: filed as agonist, Compound concentration 10.0 uM
[20] = target: Prostaglandin E2 receptor EP2 subtype (Homo sapiens) (UniProt P43116); experiment: EP2 (h) Eurofins-Cerep binding assay; parameters: ligand concentration 3 nM; details: filed as agonist, Compound concentration 10.0 uM
[21] = target: P2X receptor (Rattus norvegicus) (UniProt P51579+P49653+P51578+Q64663+P47824+P51577+P49654); experiment: P2X Eurofins-Cerep binding assay; assay type: protein assay; parameters: ligand concentration 3 nM; details: filed as agonist, Compound concentration 10.0 uM
[22] = target: 5-hydroxytryptamine receptor 2B (Homo sapiens) (UniProt P41595); experiment: 5-HT2B (h) Eurofins-Cerep binding assay; parameters: ligand concentration 0.2 nM; details: filed as agonist, Compound concentration 10.0 uM
[23] = target: 5-hydroxytryptamine receptor 7 (Homo sapiens) (UniProt P34969); experiment: 5-HT7 (h) Eurofins-Cerep binding assay; parameters: ligand concentration 4 nM; details: filed as agonist, Compound concentration 10.0 uM
[24] = target: Vasopressin V1a receptor (Homo sapiens) (UniProt P37288); experiment: V1 a (h) Eurofins-Cerep binding assay; parameters: ligand concentration 0.3 nM; details: filed as agonist, Compound concentration 10.0 uM
Vasopressin V1a receptor (Homo sapiens), sequence (P37288 whole entry, looked up): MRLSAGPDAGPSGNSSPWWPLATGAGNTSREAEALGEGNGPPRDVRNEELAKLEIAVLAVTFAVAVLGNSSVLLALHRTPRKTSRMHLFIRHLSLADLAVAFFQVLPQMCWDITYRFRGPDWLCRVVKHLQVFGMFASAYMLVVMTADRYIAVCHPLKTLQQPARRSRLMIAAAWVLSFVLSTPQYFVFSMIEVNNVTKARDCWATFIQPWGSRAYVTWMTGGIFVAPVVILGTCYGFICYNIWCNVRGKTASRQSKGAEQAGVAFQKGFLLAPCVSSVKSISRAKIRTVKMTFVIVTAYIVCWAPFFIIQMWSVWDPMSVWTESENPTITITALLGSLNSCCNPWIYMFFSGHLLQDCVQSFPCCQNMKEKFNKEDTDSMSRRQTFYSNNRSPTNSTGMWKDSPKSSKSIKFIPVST

Cannabinoid receptor 1 (Homo sapiens), sequence (P21554 whole entry): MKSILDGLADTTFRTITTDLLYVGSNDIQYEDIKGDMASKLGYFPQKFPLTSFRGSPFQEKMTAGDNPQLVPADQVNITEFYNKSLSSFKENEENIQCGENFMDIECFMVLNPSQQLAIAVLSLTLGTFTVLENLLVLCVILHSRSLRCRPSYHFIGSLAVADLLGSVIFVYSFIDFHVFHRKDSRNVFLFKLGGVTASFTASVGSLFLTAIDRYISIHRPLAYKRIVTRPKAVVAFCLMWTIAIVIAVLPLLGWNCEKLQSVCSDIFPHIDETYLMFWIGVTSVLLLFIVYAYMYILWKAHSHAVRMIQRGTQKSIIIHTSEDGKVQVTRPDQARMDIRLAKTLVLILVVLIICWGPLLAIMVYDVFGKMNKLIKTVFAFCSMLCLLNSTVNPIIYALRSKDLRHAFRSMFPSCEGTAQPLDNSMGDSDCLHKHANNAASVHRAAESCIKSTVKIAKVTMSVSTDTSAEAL
5-hydroxytryptamine receptor 2B (Homo sapiens), sequence (P41595 whole entry): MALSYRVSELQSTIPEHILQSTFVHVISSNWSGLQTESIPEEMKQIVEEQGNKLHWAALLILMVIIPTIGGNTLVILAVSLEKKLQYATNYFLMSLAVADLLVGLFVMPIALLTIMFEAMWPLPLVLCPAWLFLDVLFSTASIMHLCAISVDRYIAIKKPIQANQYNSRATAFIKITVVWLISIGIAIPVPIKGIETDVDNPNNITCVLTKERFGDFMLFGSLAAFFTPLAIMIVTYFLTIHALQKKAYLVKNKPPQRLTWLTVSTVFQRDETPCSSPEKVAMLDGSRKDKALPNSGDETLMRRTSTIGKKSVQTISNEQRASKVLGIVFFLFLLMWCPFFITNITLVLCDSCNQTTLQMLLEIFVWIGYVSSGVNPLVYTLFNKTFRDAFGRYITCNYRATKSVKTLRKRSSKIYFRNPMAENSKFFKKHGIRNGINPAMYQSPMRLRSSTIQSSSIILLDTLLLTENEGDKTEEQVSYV
Type-2 angiotensin II receptor (Homo sapiens), sequence (P50052 whole entry): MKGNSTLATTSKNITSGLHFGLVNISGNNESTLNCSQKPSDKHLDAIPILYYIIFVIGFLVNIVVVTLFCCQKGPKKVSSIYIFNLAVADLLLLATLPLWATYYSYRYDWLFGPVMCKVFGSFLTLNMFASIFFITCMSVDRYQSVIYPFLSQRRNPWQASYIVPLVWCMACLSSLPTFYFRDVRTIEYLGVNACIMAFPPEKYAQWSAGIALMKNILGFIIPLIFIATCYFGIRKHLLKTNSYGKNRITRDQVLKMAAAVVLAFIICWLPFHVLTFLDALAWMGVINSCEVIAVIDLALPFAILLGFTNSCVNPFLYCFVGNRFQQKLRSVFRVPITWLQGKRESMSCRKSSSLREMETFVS
Alpha-1A adrenergic receptor (Homo sapiens), sequence (P35348 whole entry): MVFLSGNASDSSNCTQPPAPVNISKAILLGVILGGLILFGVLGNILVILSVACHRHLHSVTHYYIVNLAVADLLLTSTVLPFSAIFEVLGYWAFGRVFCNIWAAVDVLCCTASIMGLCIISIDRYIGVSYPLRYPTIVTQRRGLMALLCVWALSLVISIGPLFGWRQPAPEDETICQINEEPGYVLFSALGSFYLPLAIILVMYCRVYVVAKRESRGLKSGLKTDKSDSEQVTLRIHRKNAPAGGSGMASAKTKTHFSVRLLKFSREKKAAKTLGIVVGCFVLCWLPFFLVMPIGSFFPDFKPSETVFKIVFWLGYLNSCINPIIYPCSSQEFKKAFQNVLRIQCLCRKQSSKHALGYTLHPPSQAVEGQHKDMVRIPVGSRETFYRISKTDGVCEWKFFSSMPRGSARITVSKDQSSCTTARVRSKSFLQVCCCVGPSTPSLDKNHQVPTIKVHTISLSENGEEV
D(1A) dopamine receptor (Homo sapiens), sequence (P21728 whole entry): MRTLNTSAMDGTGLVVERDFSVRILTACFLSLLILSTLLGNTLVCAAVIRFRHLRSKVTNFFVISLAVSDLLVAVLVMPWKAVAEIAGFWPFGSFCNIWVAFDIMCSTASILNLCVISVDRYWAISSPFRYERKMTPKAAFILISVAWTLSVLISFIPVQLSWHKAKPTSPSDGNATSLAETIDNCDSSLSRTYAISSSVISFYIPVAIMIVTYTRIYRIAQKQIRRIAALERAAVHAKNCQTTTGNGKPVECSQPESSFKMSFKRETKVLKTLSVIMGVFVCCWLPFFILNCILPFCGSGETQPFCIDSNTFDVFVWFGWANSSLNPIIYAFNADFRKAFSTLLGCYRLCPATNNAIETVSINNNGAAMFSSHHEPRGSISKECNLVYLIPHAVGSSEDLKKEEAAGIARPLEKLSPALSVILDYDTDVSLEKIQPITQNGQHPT
Histamine H2 receptor (Homo sapiens), sequence (P25021 whole entry): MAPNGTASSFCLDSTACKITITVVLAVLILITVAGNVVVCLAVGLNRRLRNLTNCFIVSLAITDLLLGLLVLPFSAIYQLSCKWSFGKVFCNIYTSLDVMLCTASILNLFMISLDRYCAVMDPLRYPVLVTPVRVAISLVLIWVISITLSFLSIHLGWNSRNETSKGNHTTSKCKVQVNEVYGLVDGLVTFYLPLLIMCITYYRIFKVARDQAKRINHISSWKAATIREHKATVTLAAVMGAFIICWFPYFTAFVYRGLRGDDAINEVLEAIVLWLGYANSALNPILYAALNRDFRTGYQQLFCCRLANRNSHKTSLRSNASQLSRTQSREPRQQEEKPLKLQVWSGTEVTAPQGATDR
B2 bradykinin receptor (Homo sapiens), sequence (P30411 whole entry): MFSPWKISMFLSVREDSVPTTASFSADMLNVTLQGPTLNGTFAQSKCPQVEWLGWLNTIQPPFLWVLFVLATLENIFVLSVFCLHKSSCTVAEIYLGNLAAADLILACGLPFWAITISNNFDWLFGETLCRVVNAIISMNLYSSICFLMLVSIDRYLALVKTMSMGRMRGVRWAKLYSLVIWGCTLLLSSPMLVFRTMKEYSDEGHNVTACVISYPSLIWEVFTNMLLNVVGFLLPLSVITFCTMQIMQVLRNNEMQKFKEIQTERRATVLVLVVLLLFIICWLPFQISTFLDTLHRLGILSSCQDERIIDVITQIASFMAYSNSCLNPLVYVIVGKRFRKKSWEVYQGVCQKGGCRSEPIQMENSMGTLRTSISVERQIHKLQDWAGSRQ
5-hydroxytryptamine receptor 7 (Homo sapiens), sequence (P34969 whole entry): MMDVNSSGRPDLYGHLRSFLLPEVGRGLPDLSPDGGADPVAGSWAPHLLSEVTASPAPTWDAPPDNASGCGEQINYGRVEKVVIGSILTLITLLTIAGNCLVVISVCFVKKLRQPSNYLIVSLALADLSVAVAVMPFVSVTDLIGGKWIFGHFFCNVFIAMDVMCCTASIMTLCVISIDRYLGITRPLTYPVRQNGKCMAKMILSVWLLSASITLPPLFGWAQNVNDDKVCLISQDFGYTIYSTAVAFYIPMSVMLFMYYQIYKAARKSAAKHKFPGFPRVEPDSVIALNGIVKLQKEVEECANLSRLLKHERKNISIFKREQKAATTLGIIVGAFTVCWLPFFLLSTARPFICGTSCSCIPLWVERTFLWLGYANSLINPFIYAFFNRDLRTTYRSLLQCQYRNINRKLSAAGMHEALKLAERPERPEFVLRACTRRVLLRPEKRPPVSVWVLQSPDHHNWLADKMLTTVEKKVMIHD
Apoptosis regulator Bcl-2, sequence (P10415 whole entry): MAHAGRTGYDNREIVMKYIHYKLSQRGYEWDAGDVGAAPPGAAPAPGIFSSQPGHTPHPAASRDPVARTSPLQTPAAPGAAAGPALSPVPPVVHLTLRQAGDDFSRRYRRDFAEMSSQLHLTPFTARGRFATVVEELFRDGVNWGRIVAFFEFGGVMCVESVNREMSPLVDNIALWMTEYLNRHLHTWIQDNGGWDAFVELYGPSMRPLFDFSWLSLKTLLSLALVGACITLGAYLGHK
Type-1 angiotensin II receptor (Homo sapiens), sequence (P30556 whole entry): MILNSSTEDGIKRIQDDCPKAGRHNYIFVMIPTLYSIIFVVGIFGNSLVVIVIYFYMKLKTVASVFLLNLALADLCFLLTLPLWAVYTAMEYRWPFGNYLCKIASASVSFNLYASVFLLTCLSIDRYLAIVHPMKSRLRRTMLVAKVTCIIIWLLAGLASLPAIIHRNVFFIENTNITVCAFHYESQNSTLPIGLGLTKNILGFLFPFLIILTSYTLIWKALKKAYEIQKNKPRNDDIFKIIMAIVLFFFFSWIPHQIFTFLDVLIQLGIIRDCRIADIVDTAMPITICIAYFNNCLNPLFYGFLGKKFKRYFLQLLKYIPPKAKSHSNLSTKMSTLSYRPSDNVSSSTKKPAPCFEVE
Motilin receptor (Homo sapiens), sequence (O43193 whole entry): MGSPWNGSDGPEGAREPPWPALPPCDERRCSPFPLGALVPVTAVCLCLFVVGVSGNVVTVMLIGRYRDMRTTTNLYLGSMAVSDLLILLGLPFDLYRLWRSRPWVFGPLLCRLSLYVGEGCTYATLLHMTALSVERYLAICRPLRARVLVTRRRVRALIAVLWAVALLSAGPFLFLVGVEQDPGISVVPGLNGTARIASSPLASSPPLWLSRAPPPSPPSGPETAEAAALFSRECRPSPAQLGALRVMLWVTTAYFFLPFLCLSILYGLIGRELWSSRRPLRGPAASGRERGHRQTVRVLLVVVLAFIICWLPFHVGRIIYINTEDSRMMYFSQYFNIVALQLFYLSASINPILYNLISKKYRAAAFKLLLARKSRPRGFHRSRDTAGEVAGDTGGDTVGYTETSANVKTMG

| SMILES | IC50 [1] | IC50 [2] | % Inhibition of Control Values (Mean n=2) [3] [%] | % Inhibition of Control Specific Binding (Mean n=2) [4] [%] | % Inhibition of Control Specific Binding (Mean n=2) [5] [%] | % Inhibition of Control Specific Binding (Mean n=2) [6] [%] | % Inhibition of Control Specific Binding (Mean n=2) [7] [%] | % Inhibition of Control Specific Binding (Mean n=2) [8] [%] | % Inhibition of Control Specific Binding (Mean n=2) [9] [%] | % Inhibition of Control Specific Binding (Mean n=2) [10] [%] | % Inhibition of Control Specific Binding (Mean n=2) [11] [%] | % Inhibition of Control Specific Binding (Mean n=2) [12] [%] | % Inhibition of Control Specific Binding (Mean n=2) [13] [%] | inhibition at 60 min, 10 µM [14] [%] | % Inhibition of Control Specific Binding (Mean n=2) [15] [%] | % Inhibition of Control Specific Binding (Mean n=2) [16] [%] | % Inhibition of Control Specific Binding (Mean n=2) [17] [%] | % Inhibition of Control Specific Binding (Mean n=2) [18] [%] | % Inhibition of Control Specific Binding (Mean n=2) [19] [%] | % Inhibition of Control Specific Binding (Mean n=2) [20] [%] | other results |
| --- | --- | --- | --- | --- | --- | --- | --- | --- | --- | --- | --- | --- | --- | --- | --- | --- | --- | --- | --- | --- | --- |
| CN(C)CC#Cc1ccc(OCCCc2sc(N3CCc4cccc(C(=O)Nc5nc6ccccc6s5)c4C3)nc2C(=O)O)c(F)c1 [A-1155463] | 382 nM (not active) | 14000 nM (not active) | 2 | 6.7 | 20.5 | 1.1 | 18.1 | -7 | 2.6 | 4.1 | 26.2 | -2.2 | -11.6 | 74.5 | -21.6 | 28.6 | 13.8 | 10.3 | 36.1 | 33.8 | % Inhibition of Control Specific Binding (Mean n=2) [21]: 13.5%; % Inhibition of Control Specific Binding (Mean n=2) [22]: -46.8%; % Inhibition of Control Specific Binding (Mean n=2) [23]: 16.9%; % Inhibition of Control Specific Binding (Mean n=2) [24]: 5.3% |
| O=C(Nc1nc2ccccc2s1)c1cccc2c1CN(c1nc(C(=O)O)c(CCOc3ccc(-n4ncc5cncnc54)cc3)s1)CC2 [A-1107969] | 3780 nM (not active) | 2000 nM (not active) | 12.6 | -6.1 | -3.5 | 1.5 | 17.3 | -20.2 | -4.1 | -9.9 | 3.5 | -5.1 | -11 | 11.1 | 2.2 | -7.3 | 8.6 | 8.8 | 6 | 60.3 | % Inhibition of Control Specific Binding (Mean n=2) [21]: -0.4%; % Inhibition of Control Specific Binding (Mean n=2) [22]: -44.2%; % Inhibition of Control Specific Binding (Mean n=2) [23]: 11.4%; % Inhibition of Control Specific Binding (Mean n=2) [24]: 4.8% |
